The record followed here is ChEMBL document CHEMBL1201862, “PubChem BioAssay data set” (2004).

Calls of active or inactive are those of the source.

For orientation: IC50 means the concentration needed to halve the response being measured. For orientation: EC50 means the midpoint of the concentration-response curve. One may read the AC50 as the concentration giving half of the maximal activity seen. In general, CC50 refers to the concentration that lowers cell viability or growth by half.

Test [1] addresses Eukaryotic translation initiation factor 4H (Homo sapiens, UniProt Q15056). Nature of the test: human eIF4H binding inhibitors, primary screen, translation initiation inhibitor project, biochemical, uHTS, fluorescence polarization (AID 2012). For orientation: Polarisation of emitted light reports the rotation of a fluorescent probe.
Test [2] concerns the target Polyadenylate-binding protein 1 (Homo sapiens, UniProt P11940). Description: PABP poly(A) RNA binding inhibitors, primary screen, biochemical, fluorescence polarization, uHTS (AID 2014).
Test [3] addresses T1, Heat shock factor protein 1 (Mus musculus, UniProt P38532).
T1 sequence (P38532 whole entry): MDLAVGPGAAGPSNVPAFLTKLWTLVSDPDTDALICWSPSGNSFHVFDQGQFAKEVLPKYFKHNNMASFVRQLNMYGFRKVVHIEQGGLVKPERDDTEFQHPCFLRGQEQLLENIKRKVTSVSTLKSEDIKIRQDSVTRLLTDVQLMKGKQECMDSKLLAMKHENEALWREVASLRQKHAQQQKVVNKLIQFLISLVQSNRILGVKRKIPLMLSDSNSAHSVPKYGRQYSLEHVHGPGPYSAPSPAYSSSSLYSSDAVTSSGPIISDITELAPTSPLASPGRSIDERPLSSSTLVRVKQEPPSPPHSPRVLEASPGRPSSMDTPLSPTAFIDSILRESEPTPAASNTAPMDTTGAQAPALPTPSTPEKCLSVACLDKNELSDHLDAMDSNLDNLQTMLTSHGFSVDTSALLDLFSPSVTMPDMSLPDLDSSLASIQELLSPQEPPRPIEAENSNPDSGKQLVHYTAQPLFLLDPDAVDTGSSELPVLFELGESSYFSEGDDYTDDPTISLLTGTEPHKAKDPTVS
Nature of the test: inhibition of MG132-induced HSE-luciferase signal, confirmation, cell-based, NIH3T3, luminescence, dose retest (AID 2382).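 Note: NIH3T3 fibroblasts with HSF1-driven luciferase reporter stressed by proteasome inhibitor MG132; luminescence from HSF1-driven luciferase expression after 8 hours of MG132 stress.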 The class given is functional.

The next test addresses Aspartyl aminopeptidase (Plasmodium falciparum 3D7, UniProt Q8I2J3).
A further test has as its target Procathepsin L (Homo sapiens, UniProt P07711).
Another test has as its target Cytochrome P450 3A4 (Homo sapiens, UniProt P08684). The note with it: Potency.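 Note: confirmatory qHTS run detecting inhibitors and substrates of CYP3A4.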
Test [4] deals with Peroxisome proliferator-activated receptor gamma/Nuclear receptor coactivator 2 (Homo sapiens, UniProt P37231). Nature of the test: TR-FRET dose response biochemical High Throughput Screening assay for agonists of the steroid receptor coactivator 2 (SRC-2) recruitment by the peroxisome proliferator-activated receptor gamma (PPAR gamma): non-selective agonists. [Related pubchem assays: 1297, 1032 ]. The class given is functional.

Test [5] concerns the target Photoreceptor-specific nuclear receptor (Homo sapiens, UniProt Q9Y5X4). The class given is functional.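 Note: potency for compounds that break the NR2E3 corepressor complex and count as activators.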
In a further test the target is T2, Leucine aminopeptidase (Plasmodium falciparum 3D7, UniProt Q8IL11).
T2 sequence (Q8IL11 whole entry): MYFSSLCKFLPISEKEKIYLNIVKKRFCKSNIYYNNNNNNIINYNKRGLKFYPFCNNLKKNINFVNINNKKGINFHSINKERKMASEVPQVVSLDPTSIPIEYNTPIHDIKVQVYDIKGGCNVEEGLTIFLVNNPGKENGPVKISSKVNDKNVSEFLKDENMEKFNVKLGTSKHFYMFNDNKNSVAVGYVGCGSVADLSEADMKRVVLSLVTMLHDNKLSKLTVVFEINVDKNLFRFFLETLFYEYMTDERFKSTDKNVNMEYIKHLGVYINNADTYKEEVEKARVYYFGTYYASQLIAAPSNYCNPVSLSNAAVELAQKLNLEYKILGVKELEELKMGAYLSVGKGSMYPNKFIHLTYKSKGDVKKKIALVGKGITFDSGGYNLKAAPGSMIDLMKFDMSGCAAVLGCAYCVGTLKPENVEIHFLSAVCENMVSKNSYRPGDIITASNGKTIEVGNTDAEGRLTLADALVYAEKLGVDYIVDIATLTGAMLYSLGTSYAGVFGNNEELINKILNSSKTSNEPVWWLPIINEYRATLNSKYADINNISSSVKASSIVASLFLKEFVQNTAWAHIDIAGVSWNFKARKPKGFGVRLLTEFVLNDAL
Nature of the test: P. falciparum M17LAP inhibitors, primary screen, biochemical, fluorogenic H-Leu-NHMec substrate, 1536-well (AID 1619). The class given is functional.

The target of test [6] is Peroxisome proliferator-activated receptor gamma/Nuclear receptor corepressor 2 (Homo sapiens, UniProt P37231+Q9Y618). The class given is functional.
Test [7] addresses Peroxisome proliferator-activated receptor gamma/Nuclear receptor coactivator 1 (Homo sapiens, UniProt P37231). Nature of the test: TR-FRET dose response biochemical High Throughput Screening assay for agonists of the steroid receptor coactivator 1 (SRC-1) recruitment by the peroxisome proliferator-activated receptor gamma (PPAR gamma): non-selective agonists. [Related pubchem assays (depositor defined):AID1300, AID1808, AID504735, AID631]. The class given is protein assay.

Test [8] addresses Peroxisome proliferator-activated receptor gamma/Nuclear receptor coactivator 3 (Homo sapiens, UniProt P37231). Nature of the test: TR-FRET dose response biochemical High Throughput Screening assay for agonists of the steroid receptor coactivator 3 (SRC-3) recruitment by the peroxisome proliferator-activated receptor gamma (PPAR gamma): non-selective agonists. [Related pubchem assays: 1301 (Confirmation screen.), 1048 (Primary screen.)]. The class given is functional. (In general: In TR-FRET formats the signal depends on donor and acceptor labels being close together.)

A further test deals with Cytochrome P450 2C9 (Homo sapiens, UniProt P11712). The note with it: Potency.
The next test addresses T3, Insulin-degrading enzyme (Homo sapiens, UniProt P14735).
T3 sequence (P14735 whole entry): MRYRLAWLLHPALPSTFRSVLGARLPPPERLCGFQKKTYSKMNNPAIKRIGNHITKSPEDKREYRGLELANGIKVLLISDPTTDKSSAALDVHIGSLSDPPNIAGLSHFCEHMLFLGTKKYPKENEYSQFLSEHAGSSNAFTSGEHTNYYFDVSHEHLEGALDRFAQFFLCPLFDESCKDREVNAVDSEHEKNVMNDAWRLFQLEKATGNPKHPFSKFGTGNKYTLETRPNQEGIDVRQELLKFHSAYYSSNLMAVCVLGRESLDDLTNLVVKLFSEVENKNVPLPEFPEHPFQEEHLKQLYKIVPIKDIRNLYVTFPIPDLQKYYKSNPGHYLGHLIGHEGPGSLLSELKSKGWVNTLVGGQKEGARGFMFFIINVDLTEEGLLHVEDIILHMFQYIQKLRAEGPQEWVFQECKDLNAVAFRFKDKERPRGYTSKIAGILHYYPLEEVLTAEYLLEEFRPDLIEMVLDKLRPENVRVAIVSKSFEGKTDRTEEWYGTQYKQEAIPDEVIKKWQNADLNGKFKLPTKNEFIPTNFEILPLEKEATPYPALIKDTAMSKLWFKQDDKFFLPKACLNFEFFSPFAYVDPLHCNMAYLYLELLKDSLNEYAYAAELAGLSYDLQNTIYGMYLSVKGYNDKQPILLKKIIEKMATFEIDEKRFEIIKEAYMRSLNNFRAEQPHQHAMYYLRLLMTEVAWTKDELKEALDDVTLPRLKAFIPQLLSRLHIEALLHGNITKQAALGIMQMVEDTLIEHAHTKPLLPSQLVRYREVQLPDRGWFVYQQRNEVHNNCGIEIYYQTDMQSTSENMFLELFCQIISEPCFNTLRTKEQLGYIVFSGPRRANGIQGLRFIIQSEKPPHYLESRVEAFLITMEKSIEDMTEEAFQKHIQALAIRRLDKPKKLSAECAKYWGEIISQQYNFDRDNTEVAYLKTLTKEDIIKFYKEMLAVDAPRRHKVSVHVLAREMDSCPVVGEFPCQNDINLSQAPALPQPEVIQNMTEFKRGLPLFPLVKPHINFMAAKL
Nature of the test: Dose Response: Fluorescence polarization-based cell-based high throughput dose response assay for inhibitors of insulin-degrading enzyme (IDE). [Related pubchem assays: 434962 (Primary screen (IDE inhibitors in singlicate)), 449730 (Counterscreen (Cytotoxicity in triplicate)), 435028 (Confirmation (IDE inhibitors in triplicate)), 434984 (Summary …. The class given is functional.

The nature of test [9]: HEp-2 cell cytotoxicity, dose response, cytotoxicity control for RSV inhibitor project, HTS (AID 2410). The class given is functional. The note with it: human respiratory syncytial virus.
The nature of test [10]: Counterscreen for IDE inhibitors: Luminescence-based cell-based high throughput dose response assay to identify compounds that are cytotoxic to HEK cells. [Related pubchem assays: 434962 (Primary screen (IDE inhibitors in singlicate)), 449730 (Counterscreen (Cytotoxicity in triplicate)), 435028 (Confirmation (IDE inhibitors in triplicate)) …. The class given is functional. The note with it: HEK293.

The target of test [11] is Lysosomal acid glucosylceramidase (Homo sapiens, UniProt P04062). Nature of the test: Dose response cell-based high throughput screening assay to identify enhancers of beta-glucosidase activity. [Related pubchem assays: 784 ]. The class given is functional.
Test [12] addresses Acyl-homoserine lactone acylase PvdQ (Pseudomonas aeruginosa (strain LESB58), UniProt Q9I194). Nature of the test: P. aeruginosa PvdQ acylase inhibitors, dose response, biochemical, fluorescence, plate reader and imaging, cherry-picks (AID 493231).

Sequence of Peroxisome proliferator-activated receptor gamma/Nuclear receptor corepressor 2 (P37231 whole entry): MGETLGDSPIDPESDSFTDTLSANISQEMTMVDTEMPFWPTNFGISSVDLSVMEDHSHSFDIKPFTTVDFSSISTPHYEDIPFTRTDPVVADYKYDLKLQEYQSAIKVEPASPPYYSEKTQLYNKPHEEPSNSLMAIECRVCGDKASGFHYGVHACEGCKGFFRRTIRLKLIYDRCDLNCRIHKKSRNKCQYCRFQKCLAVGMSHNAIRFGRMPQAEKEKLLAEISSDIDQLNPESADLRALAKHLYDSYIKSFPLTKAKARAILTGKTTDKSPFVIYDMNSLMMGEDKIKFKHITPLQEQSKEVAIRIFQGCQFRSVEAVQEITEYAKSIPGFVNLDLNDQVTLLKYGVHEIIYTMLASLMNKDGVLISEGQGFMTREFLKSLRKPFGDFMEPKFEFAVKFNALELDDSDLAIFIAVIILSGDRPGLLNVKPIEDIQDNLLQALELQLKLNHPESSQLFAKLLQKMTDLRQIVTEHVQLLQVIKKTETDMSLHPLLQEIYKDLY
Sequence of Peroxisome proliferator-activated receptor gamma/Nuclear receptor corepressor 2 (Q9Y618 whole entry): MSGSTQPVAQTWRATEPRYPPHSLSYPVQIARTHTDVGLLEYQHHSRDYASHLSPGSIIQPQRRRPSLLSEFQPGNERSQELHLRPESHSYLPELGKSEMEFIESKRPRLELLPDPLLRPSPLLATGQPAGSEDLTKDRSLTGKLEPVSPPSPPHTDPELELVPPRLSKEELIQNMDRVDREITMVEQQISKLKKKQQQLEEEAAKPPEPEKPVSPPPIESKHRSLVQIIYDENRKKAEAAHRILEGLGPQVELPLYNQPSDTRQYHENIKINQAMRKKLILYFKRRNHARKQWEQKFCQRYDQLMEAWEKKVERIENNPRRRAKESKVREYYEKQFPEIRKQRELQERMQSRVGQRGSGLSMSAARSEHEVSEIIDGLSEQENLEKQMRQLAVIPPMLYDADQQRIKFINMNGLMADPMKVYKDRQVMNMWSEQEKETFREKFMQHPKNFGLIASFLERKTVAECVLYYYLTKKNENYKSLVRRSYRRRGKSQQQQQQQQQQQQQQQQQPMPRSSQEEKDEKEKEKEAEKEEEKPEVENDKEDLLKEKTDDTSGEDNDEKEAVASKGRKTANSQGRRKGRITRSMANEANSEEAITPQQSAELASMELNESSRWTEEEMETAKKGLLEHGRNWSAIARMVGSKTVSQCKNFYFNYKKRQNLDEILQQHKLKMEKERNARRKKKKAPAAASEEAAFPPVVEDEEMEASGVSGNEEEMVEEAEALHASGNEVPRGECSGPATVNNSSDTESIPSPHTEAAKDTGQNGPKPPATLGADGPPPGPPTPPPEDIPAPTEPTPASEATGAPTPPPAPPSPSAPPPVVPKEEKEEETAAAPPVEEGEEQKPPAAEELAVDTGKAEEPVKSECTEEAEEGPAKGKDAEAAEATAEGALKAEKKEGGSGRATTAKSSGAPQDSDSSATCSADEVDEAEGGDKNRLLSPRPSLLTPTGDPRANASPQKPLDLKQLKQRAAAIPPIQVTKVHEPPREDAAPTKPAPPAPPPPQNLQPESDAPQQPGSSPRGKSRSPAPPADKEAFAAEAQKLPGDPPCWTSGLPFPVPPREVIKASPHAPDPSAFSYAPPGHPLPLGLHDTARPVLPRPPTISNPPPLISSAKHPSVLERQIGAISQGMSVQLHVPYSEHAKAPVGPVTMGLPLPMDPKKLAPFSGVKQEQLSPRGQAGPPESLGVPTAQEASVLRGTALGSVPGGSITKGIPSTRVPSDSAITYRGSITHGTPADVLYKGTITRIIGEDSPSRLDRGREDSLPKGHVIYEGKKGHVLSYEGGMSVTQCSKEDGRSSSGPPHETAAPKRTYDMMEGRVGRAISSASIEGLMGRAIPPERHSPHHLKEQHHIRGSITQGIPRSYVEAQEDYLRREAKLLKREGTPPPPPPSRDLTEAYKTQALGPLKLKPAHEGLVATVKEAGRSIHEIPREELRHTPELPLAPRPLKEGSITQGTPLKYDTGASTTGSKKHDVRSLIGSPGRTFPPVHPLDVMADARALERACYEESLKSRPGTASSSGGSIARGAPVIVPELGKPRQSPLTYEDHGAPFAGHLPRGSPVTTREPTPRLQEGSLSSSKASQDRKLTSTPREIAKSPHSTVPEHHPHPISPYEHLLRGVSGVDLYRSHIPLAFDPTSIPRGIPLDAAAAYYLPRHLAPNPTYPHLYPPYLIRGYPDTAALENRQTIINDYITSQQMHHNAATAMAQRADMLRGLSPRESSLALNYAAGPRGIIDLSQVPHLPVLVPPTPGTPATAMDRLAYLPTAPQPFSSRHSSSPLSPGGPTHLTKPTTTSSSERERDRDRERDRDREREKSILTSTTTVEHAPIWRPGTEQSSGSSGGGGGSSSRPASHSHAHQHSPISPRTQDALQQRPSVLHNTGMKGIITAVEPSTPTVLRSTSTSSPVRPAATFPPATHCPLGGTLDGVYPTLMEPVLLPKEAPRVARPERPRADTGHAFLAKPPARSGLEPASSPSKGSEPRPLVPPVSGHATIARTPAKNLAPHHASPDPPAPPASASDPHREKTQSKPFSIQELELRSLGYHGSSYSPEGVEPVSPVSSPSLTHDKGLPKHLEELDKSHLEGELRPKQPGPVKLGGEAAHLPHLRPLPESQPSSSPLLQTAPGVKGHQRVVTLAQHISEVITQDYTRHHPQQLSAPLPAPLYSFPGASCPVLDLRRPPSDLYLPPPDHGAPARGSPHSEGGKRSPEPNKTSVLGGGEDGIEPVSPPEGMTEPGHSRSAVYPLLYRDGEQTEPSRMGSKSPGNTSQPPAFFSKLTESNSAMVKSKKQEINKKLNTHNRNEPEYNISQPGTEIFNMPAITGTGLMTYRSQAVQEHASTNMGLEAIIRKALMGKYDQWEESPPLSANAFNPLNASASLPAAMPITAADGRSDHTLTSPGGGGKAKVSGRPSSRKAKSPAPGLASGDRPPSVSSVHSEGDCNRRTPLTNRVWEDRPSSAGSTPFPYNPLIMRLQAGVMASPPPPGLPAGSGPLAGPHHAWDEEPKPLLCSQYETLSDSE
Sequence of Aspartyl aminopeptidase (Q8I2J3 whole entry): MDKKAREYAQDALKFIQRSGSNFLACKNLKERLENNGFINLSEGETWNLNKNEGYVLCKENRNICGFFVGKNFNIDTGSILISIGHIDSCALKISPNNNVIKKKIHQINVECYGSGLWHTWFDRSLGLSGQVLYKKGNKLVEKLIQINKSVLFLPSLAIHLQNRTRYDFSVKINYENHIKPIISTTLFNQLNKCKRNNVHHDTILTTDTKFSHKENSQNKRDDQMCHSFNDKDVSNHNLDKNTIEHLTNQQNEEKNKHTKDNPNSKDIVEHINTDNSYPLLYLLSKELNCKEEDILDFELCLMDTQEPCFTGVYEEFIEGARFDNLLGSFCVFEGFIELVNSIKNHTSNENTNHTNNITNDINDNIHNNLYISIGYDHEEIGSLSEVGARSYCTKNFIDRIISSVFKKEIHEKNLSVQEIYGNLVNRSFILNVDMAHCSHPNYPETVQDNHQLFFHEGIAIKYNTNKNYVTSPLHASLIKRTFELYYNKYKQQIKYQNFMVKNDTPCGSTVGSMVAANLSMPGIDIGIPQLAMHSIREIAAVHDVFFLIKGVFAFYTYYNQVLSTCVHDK
Sequence of Acyl-homoserine lactone acylase PvdQ (Q9I194 24-193 limits assumed): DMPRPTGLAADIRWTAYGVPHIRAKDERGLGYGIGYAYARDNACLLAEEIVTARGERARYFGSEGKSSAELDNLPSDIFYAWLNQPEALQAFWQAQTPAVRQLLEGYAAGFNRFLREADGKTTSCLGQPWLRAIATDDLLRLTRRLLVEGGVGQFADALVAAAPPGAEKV
Sequence of Acyl-homoserine lactone acylase PvdQ (Q9I194 217-762 limits assumed): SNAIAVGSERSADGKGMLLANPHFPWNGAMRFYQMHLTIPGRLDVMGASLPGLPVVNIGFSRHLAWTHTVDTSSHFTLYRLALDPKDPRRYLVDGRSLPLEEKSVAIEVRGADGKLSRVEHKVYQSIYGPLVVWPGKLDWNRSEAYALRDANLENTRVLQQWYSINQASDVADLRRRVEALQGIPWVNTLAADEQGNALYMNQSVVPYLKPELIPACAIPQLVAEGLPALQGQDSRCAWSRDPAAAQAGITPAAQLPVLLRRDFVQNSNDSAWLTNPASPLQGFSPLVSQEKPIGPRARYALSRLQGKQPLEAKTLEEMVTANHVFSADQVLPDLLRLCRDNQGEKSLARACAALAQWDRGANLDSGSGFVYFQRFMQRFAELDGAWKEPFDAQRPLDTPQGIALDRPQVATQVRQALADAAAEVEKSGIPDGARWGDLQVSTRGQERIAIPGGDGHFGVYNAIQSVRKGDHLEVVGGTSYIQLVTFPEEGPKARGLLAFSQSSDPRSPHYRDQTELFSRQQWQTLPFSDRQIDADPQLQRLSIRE
Sequence of Cytochrome P450 3A4 (P08684 whole entry): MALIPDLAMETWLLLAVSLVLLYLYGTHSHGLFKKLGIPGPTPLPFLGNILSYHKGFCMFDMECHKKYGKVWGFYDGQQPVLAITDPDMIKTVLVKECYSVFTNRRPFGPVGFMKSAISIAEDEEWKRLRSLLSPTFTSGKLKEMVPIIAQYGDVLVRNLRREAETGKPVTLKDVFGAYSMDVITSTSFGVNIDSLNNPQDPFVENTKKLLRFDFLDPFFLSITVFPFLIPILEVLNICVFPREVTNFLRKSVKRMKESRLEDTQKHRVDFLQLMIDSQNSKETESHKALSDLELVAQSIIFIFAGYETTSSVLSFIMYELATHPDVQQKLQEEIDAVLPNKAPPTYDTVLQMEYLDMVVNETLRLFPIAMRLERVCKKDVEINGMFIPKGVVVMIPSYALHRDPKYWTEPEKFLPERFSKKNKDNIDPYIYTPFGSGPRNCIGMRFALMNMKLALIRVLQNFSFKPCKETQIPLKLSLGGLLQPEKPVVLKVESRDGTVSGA

Turning to `Cn1c(SCC(=O)NC(C)(C)C)nnc1-c1cccc(NC(=O)c2ccccc2F)c1`, the IC50 in test [1] was > 100 µM (inactive); in [2], 7.07 µM (active).

Regarding `Cc1c(C(=O)c2no[n+]([O-])c2C(=O)c2cnn(C)c2C)cnn1C`, the EC50 in [3] is 5.9 µM (active). For the same molecule, the half-maximal inhibitory concentration (IC50) at Aspartyl aminopeptidase is 1.58 µM (active); at Procathepsin L it was > 59.6 µM (not active).

In the case of `Nc1ccc(Cl)cc1Cl`, the AC50 on Cytochrome P450 3A4 was 31.6 µM (inconclusive).

Take `Cn1c(=S)[nH]c2c(c1=O)C(C)(C)Cc1ccccc1-2`: the EC50 in test [4] is > 79.4 µM (not active); in test [7], > 79.4 µM (inactive); in test [8], > 79.4 µM (not active). For the same molecule, the IC50 in [5] was > 39.8 µM (not active); on Leucine aminopeptidase, 1.9 µM (active); in test [6], 3.98 µM (active).

As to `C[C@]12C=CC(=O)C=C1CC[C@@H]1[C@H]3C[C@@H](O)[C@](O)(C(=O)CO)[C@]3(C)C[C@H](O)[C@]12F`, the AC50 on Cytochrome P450 2C9 is 25.1 µM (inconclusive).

As for `Cc1ccc(NC2=NC(=O)/C(=C/c3cn(C)c4ccccc34)S2)cc1C`, the IC50 against Insulin-degrading enzyme is 18.4 µM (not active); in test [10], 16.5 µM (not active). Moreover, in test [9], the half-maximal cytotoxic concentration (CC50) was 6.5 µM (active).

In the case of `Cc1cccn2c(=O)c(/C=N/c3ccc(Cl)cc3)c(NCCO)nc12`, the EC50 in test [11] is > 50 µM (not active).

As for `CCOC(=O)c1ccc(N2Cc3ccccc3C2)cc1O`, the AC50 in [12] was > 100 µM (inactive).
